According to patent US11045472B2, “Quinazoline-pyridine derivatives for the treatment of cancer-related disorders” (ARCUS BIOSCIENCES, INC., priority 2017, dated 2021):

What was measured:
[1] = target: T1, Human A2BR (Homo sapiens, UniProt P29275); assay: Human 2B Adenosine Receptor CHO-K1 cAMP functional assay; format: cell-based; conditions: cAMP antagonist functional assay, CHO-K1 cells stably expressing Human A2BR, NECA stimulation; read-out: Potency: A2BR KB
T1 sequence (P29275 1-332): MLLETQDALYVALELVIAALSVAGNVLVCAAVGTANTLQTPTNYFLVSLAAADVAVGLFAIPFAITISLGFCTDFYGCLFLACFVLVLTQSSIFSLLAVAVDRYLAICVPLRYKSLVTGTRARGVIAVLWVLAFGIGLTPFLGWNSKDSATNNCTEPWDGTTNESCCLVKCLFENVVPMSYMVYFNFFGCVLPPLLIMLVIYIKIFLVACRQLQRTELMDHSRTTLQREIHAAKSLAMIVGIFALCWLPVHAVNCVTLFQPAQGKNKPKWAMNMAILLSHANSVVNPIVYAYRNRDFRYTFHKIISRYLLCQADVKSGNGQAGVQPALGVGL
Experimental: Measurement of the Adenosine Receptor Activity of Compounds Using a Human 2B Adenosine Receptor CHO-K1 cAMP Functional Assay
CHO-K1 cells stably expressing Human Adenosine 2B Receptor (A2BR: Cat. No. M000329, GenScript) were purchased from GenScript Inc., Piscataway, N.J. 08854, USA.
The cAMP antagonist functional assay (Perkin Elmer) was performed on CHO-K1 cells stably expressing Human A2BR. 1×10^6 cells were seeded in T75 flasks and cultured at 37° C. and 5% CO2 overnight. 2,000-4,000 cells/well of stably-expressed A2bR CHO-K1 cells were then seeded to a white 384-well Opti plate followed by compound 1 incubation at various concentrations (ranging from 1 μM to 0 μM) at 37° C. for 1 hour.
(§1) A 1:2 serial dilution of NECA (Sigma Aldrich) from 1 μM to 0 μM was added to the cell stimulation mixture and incubated for 30 min at 37° C. After 30 min incubation, 5 μL of Ulight-anti-cAMP (1:150 dilution with conjugate and lysis buffer provided by Perkin Elmer) and 5 μL of Eu-cAMP tracer (1:50 dilution with conjugate and lysis buffer provided by Perkin Elmer) was added the cells and incubated for an hour. FRET signal was detected with an Envision multilabel plate reader (Perkin Elmer) loaded with 615 nm […] filters and 665 nm emission filters.
(§2) Data analysis was performed using on GraphPad Prism (version 7.02) to determine the KB of the test compounds.

[2] = target: T2, Human A2AR (Homo sapiens, UniProt P29274); assay: human 2A Adenosine Receptor (A2aR) CHO-TREx cAMP functional assay; format: cell-based; conditions: cAMP antagonist functional assay, CHO-T-REx cells expressing Human A2AR, NECA stimulation; read-out: Potency: A2AR KB
T2 construct: expressed in transfected cells; host or cells: CHO-T-REx cells (inducible expression)
Experimental: Measurement of the Adenosine Receptor Activity of Compounds using a human 2A Adenosine Receptor (A2aR) CHO-TREx cAMP Functional Assay
The cAMP antagonist functional assay (Perkin Elmer) was performed on CHO-T-REx cells induced to express Human A2AR. Cells were seeded to a white 384-well Opti plate at a density of 1,000 to 2,500 cells per well followed by incubation with various concentrations of compound (ranging from 1 μM to 0 μM) at 37° C. for 1 hour.
as §1, §2

T2 sequence (P29274 whole entry): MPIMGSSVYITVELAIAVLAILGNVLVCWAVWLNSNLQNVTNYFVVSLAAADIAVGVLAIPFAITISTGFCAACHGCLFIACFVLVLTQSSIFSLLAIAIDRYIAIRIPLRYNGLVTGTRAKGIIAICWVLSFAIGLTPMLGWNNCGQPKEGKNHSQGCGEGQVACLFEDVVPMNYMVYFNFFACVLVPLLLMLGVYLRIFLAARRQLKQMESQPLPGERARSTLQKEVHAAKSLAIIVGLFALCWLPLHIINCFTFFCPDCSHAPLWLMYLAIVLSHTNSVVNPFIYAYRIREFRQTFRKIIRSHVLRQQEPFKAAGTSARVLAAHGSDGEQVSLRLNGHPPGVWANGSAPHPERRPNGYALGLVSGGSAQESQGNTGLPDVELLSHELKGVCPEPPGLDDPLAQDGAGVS

Row | SMILES | Kb [1] [nM] | Kb [2] [nM]
1 | Nc1nc(-c2cn(Cc3cccc(C4(O)COC4)n3)nn2)c2cccc(F)c2n1 | 100 to 1000 | < 100
2 | COc1cccc2c(-c3cn(Cc4cccc(C(C)(C)CO)n4)nn3)nc(N)nc12 | < 100 | < 100
3 | COc1cccc2c(-c3cn(Cc4cccc(C(C)(C)O)n4)nn3)nc(N[C@H]3CCOC3)nc12 | < 100 | < 100
4 | COc1c(F)ccc2c(-c3cn(Cc4cccc(C5(O)COC5)n4)nn3)nc(N)nc12 | < 100 | < 100
5 | COc1cccc2c(-c3cn(Cc4cccc([C@@](C)(O)C(F)(F)F)n4)nn3)nc(N)nc12 | < 100 | < 100
6 | COc1cccc2c(-c3cn(Cc4cccc(C(C)(C)O)n4)nn3)nc(NC(C)C)nc12 | < 100 | < 100
7 | CCOC(=O)N1CCC(c2cccc(Cn3cc(-c4nc(N)nc5c(OC)cccc45)nn3)n2)CC1 | < 100 | < 100
8 | CCOc1cccc2c(-c3cn(Cc4cccc(C(C)(C)O)n4)nn3)nc(N)nc12 | 100 to 1000 | < 100
9 | COc1cccc2c(-c3cn(Cc4cccc(C(C)(C)O)n4)nn3)nc(NC3CC3)nc12 | < 100 | < 100
10 | CC(C)(CO)c1cccc(Cn2cc(-c3nc(N)nc4c(F)cccc34)nn2)n1 | < 100 | < 100
11 | CC(C)(O)c1cccc(Cn2cc(-c3nc(N)nc4c(F)c(F)ccc34)nn2)n1 | < 100 | < 100
12 | COc1cccc2c(-c3cn(Cc4cccc(C5(O)CCOCC5)n4)nn3)nc(N)nc12 | < 100 | < 100
13 | COc1cccc2c(-c3cn(Cc4cccc(-c5ccc(C(=O)O)cc5)n4)nn3)nc(N)nc12 | < 100 | < 100
14 | COc1cccc2c(-c3cn(Cc4cccc(-c5cccc(C(=O)O)c5)n4)nn3)nc(N)nc12 | < 100 | < 100
15 | COCCOCc1cccc(Cn2cc(-c3nc(N)nc4c(Cl)cccc34)nn2)n1 | < 100 | < 100

The remaining lines, values ahead:

Row | Kb [1] [nM] | Kb [2] [nM] | SMILES
16 | < 100 | < 100 | COc1cccc2c(-c3cnn(Cc4cccc(C5(O)CCC5)n4)c3)nc(N)nc12
17 | < 100 | < 100 | COc1cccc2c(-c3cn(Cc4cccc(C5(O)COC5)n4)nn3)nc(N)nc12
18 | < 100 | < 100 | CC(C)(O)c1cccc(Cn2cc(-c3nc(N)nc4cc(C#N)ccc34)nn2)n1
19 | < 100 | < 100 | COc1cccc2c(-c3cn(Cc4cccc(N5CCC(O)C5)n4)nn3)nc(N)nc12 (stereo not drawn)
20 | < 100 | < 100 | COc1c(F)ccc2c(-c3cn(Cc4cccc(C(C)(C)CO)n4)nn3)nc(N)nc12
21 | < 100 | < 100 | COc1cccc2c(-c3cn(Cc4cccc(C(C)(O)C(F)(F)F)n4)nn3)nc(N)nc12 (stereo not drawn)
22 | < 100 | < 100 | COc1ccc2c(-c3cn(Cc4cccc(C(C)(C)O)n4)nn3)nc(N)nc2c1
23 | < 100 | < 100 | COc1cc(F)cc2c(-c3cn(Cc4cccc(C(C)(C)O)n4)nn3)nc(N)nc12
24 | < 100 | < 100 | COc1cccc2c(-c3cn(Cc4cccc(N5CCCC5=O)n4)nn3)nc(N)nc12
25 | < 100 | < 100 | COc1cccc2c(-c3cn(Cc4cccc(COC[C@H]5CCCO5)n4)nn3)nc(N)nc12
26 | 100 to 1000 | < 100 | COc1cccc2c(-c3cn(Cc4cccc(-c5ccccc5C(=O)O)n4)nn3)nc(N)nc12
27 | < 100 | < 100 | COc1cccc2c(-c3cn(Cc4cccc([C@](C)(O)C(F)(F)F)n4)nn3)nc(N)nc12
